From patent US20110118309A1, “USE OF HDAC INHIBITORS FOR THE TREATMENT OF HODGKIN'S DISEASE” (priority 2008, published 2011)

Experiments:
[1] = test system: HD-MY-Z; assay: Single agent anti-tumor activity of LBH589 in Hodgkins Lymphoma cell lines in vitro (growth inhibition and cell kill); format: cell-based
Text: (§1) Bcl2 may be a patient stratification marker
(§2) Single agent anti-tumor activity of LBH589 in Hodgkins Lymphoma cell lines in vitro is outlined in table I.

[2] = test system: L-428; assay: as above; format: cell-based; conditions: L-428, Hodgkins Lymphoma
Text: as §1, §2

[3] = test system: RPMI 6666; assay: as above; format: cell-based; conditions: RPMI 6666, Hodgkins Lymphoma
Text: as §1, §2

[4] = test system: Hodgkin lymphoma cell lines, RPMI6666, HD-MY-Z, and L428; assay: Proliferation and viability of 3 Hodgkin lymphoma cell lines; format: cell-based; conditions: range over 3 HL cell lines; units printed in the value (picomolar, nanomolar)
Text: as §1

[5] = test system: Cell lines of mantle cell and follicular lymphoma; assay: Sensitivity of mantle cell and follicular lymphoma cell lines; format: cell-based
Text: as §1

[6] = test system: CTCL cell lines; assay: Sensitivity of CTCL cell lines; format: cell-based
Text: as §1

[7] = test system: CTCL mouse model; assay: CTCL mouse model; format: in vivo
Text: as §1

[8] = test system: E[…]-myc mouse lymphoma model; assay: E[…]-myc mouse lymphoma model; format: in vivo
Text: as §1

[9] = Homo sapiens, read-out: IC50: Concentration of LBH589 required to inhibit growth of cell line by 50%

Compound: Cc1[nH]c2ccccc2c1CCNCc1ccc(/C=C/C(=O)NO)cc1 [LBH589, N-hydroxy-3-[4-[[[2-(2-methyl-1H-indol-3-yl)-ethyl]-amino]methyl]phenyl]-2E-2-propenamide]
- LD90: Concentration of LBH589 required to kill a cell line population by 90% ([1]; in nM): >10,000
- IC50 ([1]; read-out: IC50: Concentration of LBH589 required to inhibit growth of cell line by 50%): 50.8 nM
- IC50 [2, 9]: 10.5 nM
- LD90: Concentration of LBH589 required to kill a cell line population by 90% [2]: 57.5 nM
- IC50 [3, 9]: 0.2 nM
- LD90: Concentration of LBH589 required to kill a cell line population by 90% ([3]; in nM): 274.7
- IC50 [4]: 0.2 to 50 nM
- sensitivity to LBH589 [5]: extreme sensitivity
- sensitivity to LBH589 [6]: extremely sensitive
- tumor regression [7]: profound tumor regression
- regression of lymphoma [8]: produces regression
- survival [8]: extends survival
